Test results from US12319672B2, “Alpha-D-galactopyranoside derivatives” (Idorsia Pharmaceuticals Ltd, priority 2019, dated 2025).

How the values were obtained:
human Gal-3 (hGal-3) = human Gal-3 (hGal-3) (Homo sapiens (Human), UniProt P17931); assay: Competitive binding assay: binding of biotinylated hGal-3 to microplate-adsorbed asialofetuin (ASF); details: Activity on hGal-3; mean values of several measurements
Method in brief: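 Biotinylated hGal-3 (300-1000 ng/mL) bound to ASF-coated wells with serially diluted compound, 3 h at 4° C. After washing, bound protein was detected with streptavidin-peroxidase (80 ng/mL, 1 h, 4° C) and ABTS substrate; IC50 values are means of several measurements.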

human Gal-1 (hGal-1) = assay: Competitive binding assay: binding of biotinylated hGal-1 to microplate-adsorbed asialofetuin (ASF); details: Activities on hGal-1; mean values of several measurements
Method in brief: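 Compounds diluted in DMSO competed with biotinylated hGal-3 or hGal-1 (300-1000 ng/mL) for binding to plate-adsorbed asialofetuin for 3 h at 4° C. Bound galectin was detected with streptavidin-peroxidase (80 ng/mL, 1 h, 4° C) and ABTS substrate; IC50 reported as mean of several measurements.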

Sequence of human Gal-3 (hGal-3) (P17931 whole entry): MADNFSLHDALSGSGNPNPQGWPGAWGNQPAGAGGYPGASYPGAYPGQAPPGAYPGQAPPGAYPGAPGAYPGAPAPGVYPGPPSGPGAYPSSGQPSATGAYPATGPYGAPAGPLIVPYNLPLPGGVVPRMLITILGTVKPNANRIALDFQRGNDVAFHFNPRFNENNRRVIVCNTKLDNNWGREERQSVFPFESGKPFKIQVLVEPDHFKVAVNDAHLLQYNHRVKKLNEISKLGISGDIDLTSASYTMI
Sequence of human Gal-1 (hGal-1) (P09382 2-135 limits assumed): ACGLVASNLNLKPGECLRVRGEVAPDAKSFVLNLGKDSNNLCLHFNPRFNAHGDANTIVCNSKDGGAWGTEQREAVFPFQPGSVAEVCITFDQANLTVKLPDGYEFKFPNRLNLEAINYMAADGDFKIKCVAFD

SMILES | IC50 (human Gal-3 (hGal-3)) [nM] | IC50 (human Gal-1 (hGal-1)) [nM]
CO[C@@H]1[C@@H](n2cc(-c3ccc(Cl)c(F)c3F)nn2)[C@@H](O)[C@@H](CO)O[C@@H]1Cc1cc(C(C)(C)O)on1 [Ex 1.242] | 68 | 2900
CC(C)(C)OC(=O)N1CCC(C2=NOC(C[C@H]3O[C@H](CO)[C@H](O)[C@H](n4cc(-c5ccc6ncsc6c5)nn4)[C@H]3O)C2)CC1 (some centres unmarked) [Ex 1.98] | 1560 | 1840
CO[C@@H]1[C@@H](n2cc(-c3ccc(Cl)c(F)c3F)nn2)[C@@H](O)[C@@H](CO)O[C@@H]1CC1CC(C(C)(C)CO)=NO1 (some centres unmarked) [Ex 1.280] | 300 | 1820
CO[C@@H]1[C@@H](n2cc(-c3cc(F)cc(Cl)c3)nn2)[C@@H](O)[C@@H](CO)O[C@@H]1Cc1cc(C2CCOCC2)on1 [Ex 1.187] | 450 | 5980
OC[C@H]1O[C@H](CC2CC(C3CCOCC3)=NO2)[C@H](O)[C@@H](n2cc(-c3cc(F)c(F)c(F)c3)nn2)[C@H]1O (some centres unmarked) [Ex 1.22] | 430 | 4480
CC(C)(C)OC(=O)N1CCC(C2=NOC(C[C@H]3O[C@H](CO)[C@H](O)[C@H](n4cc(-c5ccc(F)cn5)nn4)[C@H]3O)C2)CC1 (some centres unmarked) [Ex 1.104] | 1840 | 450
CO[C@@H]1[C@@H](n2cc(-c3ccc(C)c(F)c3F)nn2)[C@@H](O)[C@@H](CO)O[C@@H]1Cc1cc([C@H]2C[C@H]2O)on1 [Ex 1.349] | 180 | 7020
CO[C@@H]1[C@@H](n2cc(-c3ccc(C)c(F)c3F)nn2)[C@@H](O)[C@@H](CO)O[C@@H]1Cc1cc(C2(CC#N)CC2)no1 [Ex 1.332] | 43 | 980
CC(=O)O[C@@H]1[C@@H](n2cc(-c3ccc(C)c(F)c3F)nn2)[C@@H](O)[C@@H](CO)O[C@@H]1Cc1cc([C@@H]2CCC[C@H]2O)on1 [Ex 1.344] | 40 | 17000
CO[C@@H]1[C@@H](n2cc(-c3cc(F)cc(Cl)c3)nn2)[C@@H](O)[C@@H](CO)O[C@@H]1Cc1cc(C2CCCCC2)on1 [Ex 1.178] | 980 | 10300

Further lines, results first:

IC50 (human Gal-3 (hGal-3)) [nM] | IC50 (human Gal-1 (hGal-1)) [nM] | SMILES
290 | 12500 | OC[C@H]1O[C@H](Cc2cc(C3CCNCC3)on2)[C@H](O)[C@@H](n2cc(-c3cc(F)c(F)c(F)c3)nn2)[C@H]1O [Example 3.08, (2R,3R,4R,5R,6R)-2-(hydroxymethyl)-6-((5-(piperidin-4-yl)isoxazol-3-yl)methyl)-4-(4-(3,4,5-trifluorophenyl)-1H-1,2,3-triazol-1-yl)tetrahydro-2H-pyran-3,5-diol]
29 | 890 | CC(C)(CO)c1cc(C[C@H]2O[C@H](CO)[C@H](O)[C@H](n3cc(-c4ccc(F)c(F)c4F)nn3)[C@H]2OCC(=O)O)on1 [Example 2.46, 2-(((2R,3R,4S,5R,6R)-5-hydroxy-2-((3-(1-hydroxy-2-methylpropan-2-yl)isoxazol-5-yl)methyl)-6-(hydroxymethyl)-4-(4-(2,3,4-trifluorophenyl)-1H-1,2,3-triazol-1-yl)tetrahydro-2H-pyran-3-yl)oxy)acetic acid]
25 | 430 | CO[C@@H]1[C@@H](n2cc(-c3ccc(Cl)c(F)c3)nn2)[C@@H](O)[C@@H](CO)O[C@@H]1Cc1cn(C2CCN(C(=O)OCc3ccccc3)CC2)nn1 [Example 4.34, benzyl 4-(4-(((2R,3R,4S,5R,6R)-4-(4-(4-chloro-3-fluorophenyl)-1H-1,2,3-triazol-1-yl)-5-hydroxy-6-(hydroxymethyl)-3-methoxytetrahydro-2H-pyran-2-yl)methyl)-1H-1,2,3-triazol-1-yl)piperidine-1-carboxylate]
130 | 2830 | CO[C@@H]1[C@@H](n2cc(-c3cc(F)c(F)c(F)c3)nn2)[C@@H](O)[C@@H](CO)O[C@@H]1Cc1cc(C2CCN(CC3CC3)CC2)on1 [Example 3.43, (2R,3R,4S,5R,6R)-6-((5-(1-(cyclopropylmethyl)piperidin-4-yl)isoxazol-3-yl)methyl)-2-(hydroxymethyl)-5-methoxy-4-(4-(3,4,5-trifluorophenyl)-1H-1,2,3-triazol-1-yl)tetrahydro-2H-pyran-3-ol]
84 | 2300 | CO[C@@H]1[C@@H](n2cc(-c3ccc(Cl)c(F)c3F)nn2)[C@@H](O)[C@@H](CO)O[C@@H]1Cc1cc(C2(O)CCC2)no1 [Example 2.59, (2R,3R,4S,5R,6R)-4-(4-(4-chloro-2,3-difluorophenyl)-1H-1,2,3-triazol-1-yl)-6-((3-(1-hydroxycyclobutyl)isoxazol-5-yl)methyl)-2-(hydroxymethyl)-5-methoxytetrahydro-2H-pyran-3-ol]
97 | 1090 | CCNC(=O)N1CCC(c2cc(C[C@H]3O[C@H](CO)[C@H](O)[C@H](n4cc(-c5cc(F)c(F)c(F)c5)nn4)[C@H]3OC)no2)CC1 [Example 3.37, N-ethyl-4-(3-(((2R,3R,4S,5R,6R)-5-hydroxy-6-(hydroxymethyl)-3-methoxy-4-(4-(3,4,5-trifluorophenyl)-1H-1,2,3-triazol-1-yl)tetrahydro-2H-pyran-2-yl)methyl)isoxazol-5-yl)piperidine-1-carboxamide]
